Measurements: the NIST ThermoML archive (doi:10.1021/je0504459)

Assay: xn = mol fraction of the nth substance listed
Settings: 101 kPa, Liquid; for speed of sound: Sing-around technique in a fixed-path interferometer

ClC(Cl)Cl [trichloromethane] + CCCCCCCO
Settings | kinematic viscosity, 303.15 K [m2/s] | kinematic viscosity, 313.15 K [m2/s] | mass density, 303.15 K [kg/m3] | mass density, 313.15 K [kg/m3] | speed of sound, 303.15 K [m/s] | speed of sound, 313.15 K [m/s]
x1 = 0.0487 | 5.58e-06 | 4.17e-06 | 833.37 | 825.81 | 1296 | 1262
x1 = 0.1002 | 4.98e-06 | 3.74e-06 | 853.69 | 845.75 | 1277 | 1244
x1 = 0.1498 | 4.41e-06 | 3.34e-06 | 874.2 | 865.8 | 1260 | 1226
x1 = 0.2006 | 3.86e-06 | 2.95e-06 | 896.15 | 887.32 | 1241 | 1207
x1 = 0.2516 | 3.38e-06 | 2.61e-06 | 919.27 | 909.96 | 1222 | 1187
x1 = 0.3003 | 2.93e-06 | 2.29e-06 | 942.39 | 932.57 | 1204 | 1168
x1 = 0.3538 | 2.52e-06 | 1.99e-06 | 969.09 | 958.73 | 1183 | 1147
x1 = 0.4003 | 2.18e-06 | 1.75e-06 | 993.52 | 982.67 | 1165 | 1129
x1 = 0.4466 | 1.89e-06 | 1.54e-06 | 1019.1 | 1007.69 | 1147 | 1111
x1 = 0.5001 | 1.61e-06 | 1.32e-06 | 1050.23 | 1038.22 | 1126 | 1091
x1 = 0.5517 | 1.35e-06 | 1.13e-06 | 1082.09 | 1069.43 | 1107 | 1072
x1 = 0.6002 | 1.17e-06 | 1e-06 | 1113.83 | 1100.51 | 1089 | 1054
x1 = 0.6539 | 9.76e-07 | 8.45e-07 | 1151.17 | 1137.19 | 1070 | 1035
x1 = 0.6994 | 8.51e-07 | 7.41e-07 | 1184.84 | 1170.19 | 1054 | 1019
x1 = 0.7449 | 7.4e-07 | 6.59e-07 | 1220.55 | 1205.18 | 1039 | 1004
x1 = 0.8 | 6.33e-07 | 5.69e-07 | 1266.83 | 1250.5 | 1022 | 987
x1 = 0.8465 | 5.58e-07 | 5.09e-07 | 1308.67 | 1291.64 | 1008 | 972
x1 = 0.9003 | 4.81e-07 | 4.45e-07 | 1360.81 | 1342.82 | 993 | 957
x1 = 0.9521 | 4.2e-07 | 3.88e-07 | 1414.86 | 1396.16 | 979 | 943
x1 = 1 | 3.63e-07 | 3.39e-07 | 1469.21 | 1449.74 | 969 | 934

ClC(Cl)Cl [trichloromethane] + CCCCCCO
Settings | kinematic viscosity, 303.15 K [m2/s] | kinematic viscosity, 313.15 K [m2/s] | mass density, 303.15 K [kg/m3] | mass density, 313.15 K [kg/m3] | speed of sound, 303.15 K [m/s] | speed of sound, 313.15 K [m/s]
x1 = 0.0497 | 4.36e-06 | 3.21e-06 | 833.07 | 825.31 | 1271 | 1238
x1 = 0.1004 | 3.88e-06 | 2.89e-06 | 855.62 | 847.51 | 1253 | 1220
x1 = 0.15 | 3.45e-06 | 2.59e-06 | 878.54 | 870.06 | 1236 | 1201
x1 = 0.2006 | 3.04e-06 | 2.31e-06 | 902.79 | 893.94 | 1217 | 1182
x1 = 0.2506 | 2.67e-06 | 2.05e-06 | 927.71 | 918.4 | 1198 | 1163
x1 = 0.3005 | 2.34e-06 | 1.83e-06 | 953.48 | 943.71 | 1180 | 1143
x1 = 0.3497 | 2.04e-06 | 1.6e-06 | 980.04 | 969.85 | 1161 | 1125
x1 = 0.4004 | 1.77e-06 | 1.41e-06 | 1008.41 | 997.66 | 1142 | 1105
x1 = 0.4516 | 1.53e-06 | 1.23e-06 | 1038.38 | 1027.09 | 1123 | 1086
x1 = 0.4996 | 1.34e-06 | 1.09e-06 | 1067.63 | 1055.84 | 1106 | 1069
x1 = 0.552 | 1.14e-06 | 9.5e-07 | 1100.94 | 1088.53 | 1087 | 1051
x1 = 0.6 | 9.87e-07 | 8.33e-07 | 1133.01 | 1120 | 1070 | 1034
x1 = 0.654 | 8.52e-07 | 7.35e-07 | 1170.75 | 1157 | 1052 | 1016
x1 = 0.7001 | 7.46e-07 | 6.49e-07 | 1204.57 | 1190.18 | 1038 | 1002
x1 = 0.753 | 6.5e-07 | 5.82e-07 | 1245.39 | 1230.25 | 1023 | 986
x1 = 0.7992 | 5.82e-07 | 5.22e-07 | 1282.69 | 1266.83 | 1010 | 974
x1 = 0.8511 | 5.08e-07 | 4.7e-07 | 1327.07 | 1310.35 | 997 | 961
x1 = 0.8996 | 4.5e-07 | 4.26e-07 | 1370.59 | 1352.95 | 987 | 950
x1 = 0.9502 | 4.06e-07 | 3.81e-07 | 1418.68 | 1400.1 | 977 | 941
x1 = 1 | 3.63e-07 | 3.39e-07 | 1469.21 | 1449.74 | 969 | 934

ClC(Cl)Cl [trichloromethane] + CCCCCO
Settings | kinematic viscosity, 303.15 K [m2/s] | kinematic viscosity, 313.15 K [m2/s] | mass density, 303.15 K [kg/m3] | mass density, 313.15 K [kg/m3] | speed of sound, 303.15 K [m/s] | speed of sound, 313.15 K [m/s]
x1 = 0.0603 | 3.29e-06 | 2.56e-06 | 838.65 | 830.58 | 1241 | 1206
x1 = 0.1009 | 3.02e-06 | 2.35e-06 | 859.39 | 850.98 | 1226 | 1191
x1 = 0.1484 | 2.7e-06 | 2.12e-06 | 884.22 | 875.42 | 1209 | 1173
x1 = 0.1999 | 2.37e-06 | 1.88e-06 | 911.83 | 902.58 | 1190 | 1154
x1 = 0.2517 | 2.08e-06 | 1.66e-06 | 940.34 | 930.67 | 1171 | 1135
x1 = 0.2999 | 1.83e-06 | 1.48e-06 | 967.6 | 957.42 | 1153 | 1117
x1 = 0.3492 | 1.61e-06 | 1.31e-06 | 996.23 | 985.58 | 1135 | 1099
x1 = 0.3998 | 1.39e-06 | 1.15e-06 | 1026.46 | 1015.29 | 1118 | 1082
x1 = 0.45 | 1.22e-06 | 1.02e-06 | 1057.32 | 1045.59 | 1101 | 1065
x1 = 0.5004 | 1.07e-06 | 9.03e-07 | 1089.21 | 1076.95 | 1084 | 1048
x1 = 0.5498 | 9.31e-07 | 8.02e-07 | 1121.44 | 1108.55 | 1068 | 1032
x1 = 0.6001 | 8.27e-07 | 7.22e-07 | 1155.25 | 1141.78 | 1053 | 1017
x1 = 0.6513 | 7.24e-07 | 6.43e-07 | 1190.8 | 1176.65 | 1038 | 1002
x1 = 0.7003 | 6.57e-07 | 5.85e-07 | 1225.93 | 1211.12 | 1025 | 989
x1 = 0.751 | 5.85e-07 | 5.3e-07 | 1263.53 | 1247.97 | 1012 | 977
x1 = 0.8 | 5.3e-07 | 4.83e-07 | 1301.08 | 1284.81 | 1001 | 966
x1 = 0.8503 | 4.87e-07 | 4.48e-07 | 1341.02 | 1323.97 | 991 | 956
x1 = 0.9004 | 4.42e-07 | 4.11e-07 | 1382.24 | 1364.37 | 982 | 947
x1 = 0.952 | 4.05e-07 | 3.75e-07 | 1426.4 | 1407.56 | 974 | 938
x1 = 1 | 3.63e-07 | 3.39e-07 | 1469.21 | 1449.74 | 969 | 934
